Measurements from US8373006B2, “Anti-leishmanial compound and anti-leishmanial drug” (Aoyama Gakuin Educational Foundation, priority 2010, dated 2013).

Columns and labels:
[1] = system: L. major/egfp promastigotes; test: Analysis of in vitro anti-leishmanial activity (growth inhibition, egfp fluorescence); type: cell-based, Leishmania major; conditions: 25° C., 72 h, Amphotericin B positive control defined as 100%, FIG. 9
Method: The compounds represented by formulas (1) to (6), which had been isolated by the procedure described above, were subjected to an analysis of the physiological activity under the conditions that are described below. Leishmania major promastigotes were selected as the Leishmania protozoa, and a L. major/egfp promastigotes in which a fluorescent protein egfp gene had been introduced was used. The compounds mentioned above were used as samples. Thus, the growth inhibition rate was determined under the following conditions.
L. major/egfp promastigotes were maintained at 25° C. using a 96-well plate, in 199 medium (NISSUI Pharmaceutical) containing 10% fetal bovine serum 25 mM and Hepes buffer (ICN Biomedeivals, Inc., Aurora, Ohio) and 10 μg/mL Tunicamycin (SIGMA-ALDRICH, inc., USA). Subsequently, to each well of 96-well plates containing 100 μL of L. major/egfp suspension with 1×10^6 cells/mL, 100 μL of test solution (sample dissolved in DMSO) was added, and the plates were incubated at 25° C. for 72 h. Thereafter, Fluorescence signals of L. major/egfp promastigotes were measured with a fluorescence microplate reader (Fluoroscan Ascent FL, Dainippon Pharmaceutical Co.) with excitation at 485 nm and emission at 538 nm. […]

L. major PM2 = test: Analysis of in vivo anti-leishmanial activity in leishmaniasis mouse model; conditions: Balb/c mice infected with L. major PM2; 200 μg by peritoneal injection once a day for three weeks; FIG. 10-12
Method: In order to evaluate the in vivo anti-leishmanial activity of the compound represented by formula (3), which had been isolated by the procedure described above, a leishmaniasis mouse model was used to investigate the therapeutic effect. Six-week old mice (Balb/c, male, 6 animals per group) were infected with 1×10^7 cells of cultured promastigotes of L. major PM2. From the day after the infection day, the compound represented by the formula (3) was administered to each specimen in an amount of 200 [μg by peritoneal injection. The administration schedule was such that the compound was continuously administered once a day for three weeks. Further, as control, the same analysis was carried out also for a treatment group to which Amphotericin B was administered, and for a treatment group to which none was administered.

How did the growth inhibition rate [1] turn out when `CC(C)=CCC/C(C)=C/CC/C(C)=C/CC/C(C)=C/CC1(CC(=O)O)CC(=O)C=CC1=O` (centres unmarked) [formula (3)] was run?
Its growth inhibition rate is “almost equal to the growth inhibition rate of Amphotericin B”.

What about the “in vivo anti-leishmanial activity (size of ulcer, antibody titer in blood, protozoan DNA in blood)” value (L. major PM2) of the same compound?
The value was “equal to that of Amphotericin B”.
